Assay results from article PMC3116189, “Novel Natural Inhibitors of CYP1A2 Identified by in Silico and in Vitro Screening” (International Journal of Molecular Sciences, 2011).

Target: T1, CYP1A2 (Homo sapiens, UniProt P05177)
T1 sequence (P05177 1-516): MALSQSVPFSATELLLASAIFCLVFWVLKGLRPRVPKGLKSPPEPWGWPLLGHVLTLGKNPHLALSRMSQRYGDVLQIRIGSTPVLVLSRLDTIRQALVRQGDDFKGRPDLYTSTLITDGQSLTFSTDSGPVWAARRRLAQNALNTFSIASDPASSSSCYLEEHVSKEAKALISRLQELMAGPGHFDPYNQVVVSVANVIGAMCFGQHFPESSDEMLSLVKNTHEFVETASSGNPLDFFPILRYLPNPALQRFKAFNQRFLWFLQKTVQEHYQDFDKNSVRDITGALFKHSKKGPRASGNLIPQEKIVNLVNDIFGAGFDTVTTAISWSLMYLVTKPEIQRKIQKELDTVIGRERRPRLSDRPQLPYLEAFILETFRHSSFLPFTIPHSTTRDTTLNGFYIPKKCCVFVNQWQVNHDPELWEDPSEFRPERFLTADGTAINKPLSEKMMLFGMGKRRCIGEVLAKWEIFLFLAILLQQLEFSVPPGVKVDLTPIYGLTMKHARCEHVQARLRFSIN
Assay: in vitro
Type: biochemical
Conditions: 1 μM active ingredient, Rh CYP1A2-mediated phenacetin O-deethylation, test dataset of 202 herb ingredients
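Further: recombinant CYP1A2 incubated for 1 h at 37 °C, with the reaction started by an NADPH-generating system.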

Compound	% of Control Indication Activity (Mean) [%]
COc1ccc(-c2oc3c(CC=C(C)C)c(O[C@@H]4O[C@H](CO)[C@@H](O)[C@H](O)[C@H]4O)cc(O)c3c(=O)c2O)cc1 [Icariside I]	> 90
COc1cc2c(cc1O)CC[n+]1cc3c(OC)c(OC)ccc3cc1-2.[Cl-] [Jatrorrhizine Hydrochloride]	> 90
COc1cc2c(cc1OC)[C@@H](Cc1ccc(O)c(Oc3cc4c(cc3OC)CCN(C)[C@@H]4Cc3ccc(O)cc3)c1)N(C)CC2 [Liensinine]	> 90
COc1ccc(-c2cc(=O)c3c(O)cc(O[C@@H]4O[C@H](CO[C@@H]5O[C@@H](C)[C@H](O)[C@@H](O)[C@H]5O)[C@@H](O)[C@H](O)[C@H]4O)cc3o2)cc1 [Linarin]	> 90
COC[C@]12CN(C)[C@@H]3[C@@H]4[C@H](OC)[C@H]1[C@@]3([C@@H](OC)C[C@H]2O)[C@@H]1C[C@@]2(O)[C@H](OC(=O)c3ccccc3)[C@@H]1[C@]4(OC(C)=O)[C@@H](O)[C@@H]2OC [Mesaconitine]	> 90
C[C@@H]1CCCCCCCCCCCCC(=O)C1 [Muscone]	> 90
CC(C)=CCC[C@](C)(O[C@@H]1O[C@H](CO)[C@@H](O)[C@H](O)[C@H]1O)[C@H]1CC[C@]2(C)[C@@H]1[C@H](O)C[C@@H]1[C@@]3(C)CC[C@H](O)C(C)(C)[C@@H]3[C@@H](O[C@@H]3O[C@H](CO)[C@@H](O)[C@H](O)[C@H]3O[C@@H]3OC[C@@H](O)[C@H](O)[C@H]3O)C[C@]12C [Notoginsenoside R1]	> 90
C[C@H]1CC[C@@]2(O)C(C)(C)[C@@H]3CC[C@@]2(C)[C@H]1C3 [Patchouli alcohol]	> 90

Same assay, conditions: human, recombinant enzyme, pH 7.4

activity at 1 h, 1 μM [%]	Compound
33.6	C=CCc1ccc(O)c(-c2ccc(O)c(CC=C)c2)c1 [Honokiol]
> 90	COc1ccc(-c2oc3c(CC=C(C)C)c(O)cc(O)c3c(=O)c2O)cc1 [Icaritin]
> 90	O=C1C[C@@H](c2ccc(O[C@@H]3O[C@H](CO)[C@@H](O)[C@H](O)[C@H]3O)cc2)Oc2cc(O)ccc21 [Liquiritin]
> 90	COC(=O)c1c2c(c3ccccc3c1O)OC(C)(C)C=C2 [Mollugin]
> 90	C[C@@H]1O[C@@H](O[C@H]2[C@H](Oc3cc(O)c4c(c3)O[C@H](c3ccc(O)cc3)CC4=O)O[C@H](CO)[C@@H](O)[C@@H]2O)[C@H](O)[C@H](O)[C@H]1O [Naringin]
86.8	COc1ccc2ccc(=O)oc2c1CC=C(C)C [Osthole]
> 90	COc1cc(C(=O)O[C@H]2[C@@H]3C=CO[C@@H](O[C@@H]4O[C@H](CO)[C@@H](O)[C@H](O)[C@H]4O)[C@@H]3[C@@]3(CO)O[C@@H]23)ccc1O [Picroside-II]

Compound	activity at 1 h, 1 μM [%]
O=c1c(O[C@@H]2O[C@H](CO)[C@H](O)[C@H](O)[C@H]2O)c(-c2ccc(O)c(O)c2)oc2cc(O)cc(O)c12 [Hyperoside]	> 90

Same assay, conditions: human, recombinant enzyme, pH 7.4; 1 μM active ingredient, Rh CYP1A2-mediated phenacetin O-deethylation, test dataset of 202 herb ingredients; read-out: % of Control Indication Activity (Mean)

activity at 1 h, 1 μM [%]	Compound
> 90	COc1cc2c[n+](C)c3c4cc5c(cc4ccc3c2cc1OC)OCO5 [Nitidine]

Same assay, conditions: human, recombinant human CYP1A2, pH 7.4, probe phenacetin (25 μM), O-deethylation to acetaminophen; 1 μM active ingredient, Rh CYP1A2-mediated phenacetin O-deethylation, test dataset of 202 herb ingredients; read-out: % of Control Indication Activity (Mean)

activity at 1 h, 1 μM [%]	Compound
> 90	CC(C)=CCC[C@](C)(O[C@@H]1O[C@H](CO[C@@H]2O[C@H](CO)[C@@H](O)[C@H](O)[C@H]2O)[C@@H](O)[C@H](O)[C@H]1O)[C@H]1CC[C@]2(C)[C@@H]1[C@H](O)C[C@@H]1[C@@]3(C)CC[C@H](O[C@@H]4O[C@H](CO)[C@@H](O)[C@H](O)[C@H]4O[C@@H]4O[C@H](CO)[C@@H](O)[C@H](O)[C@H]4O)C(C)(C)[C@@H]3CC[C@]12C [Ginsenoside Rb1]
> 90	CC(C)=CCC[C@](C)(O[C@@H]1O[C@H](CO)[C@@H](O)[C@H](O)[C@H]1O)[C@H]1CC[C@]2(C)[C@@H]1[C@H](O)C[C@@H]1[C@@]3(C)CC[C@H](O)C(C)(C)[C@@H]3[C@@H](O[C@@H]3O[C@H](CO)[C@@H](O)[C@H](O)[C@H]3O[C@@H]3O[C@@H](C)[C@H](O)[C@@H](O)[C@H]3O)C[C@]12C [Ginsenoside Re]
> 90	CC(C)=CCC[C@](C)(O[C@@H]1O[C@H](CO)[C@@H](O)[C@H](O)[C@H]1O)[C@H]1CC[C@]2(C)[C@@H]1[C@H](O)C[C@@H]1[C@@]3(C)CC[C@H](O)C(C)(C)[C@@H]3[C@@H](O[C@@H]3O[C@H](CO)[C@@H](O)[C@H](O)[C@H]3O)C[C@]12C [Ginsenoside Rg1]
> 90	CC1(C)[C@@H](O)CC[C@]2(C)[C@H]3C(=O)C=C4[C@@H]5C[C@@](C)(C(=O)O)CC[C@]5(C)CC[C@@]4(C)[C@]3(C)CC[C@@H]12 [Glycyrrhetinic acid]
> 90	C[C@]1(OC(=O)/C=C/c2ccccc2)C[C@@H](O)[C@]2(O)C=CO[C@@H](O[C@@H]3O[C@H](CO)[C@@H](O)[C@H](O)[C@H]3O)[C@@H]21 [Harpagoside]
> 90	CC1(C)CC[C@]2(C(=O)O)CC[C@]3(C)C(=CC[C@@H]4[C@@]5(C)CC[C@H](O)[C@@](C)(CO)[C@@H]5CC[C@]43C)[C@@H]2C1 [Hederagenin]
> 90	O=C1/C(=C2\Nc3ccccc3C2=O)Nc2ccccc21 [Indigo]
> 90	O=C1Nc2ccccc2/C1=C1/Nc2ccccc2C1=O [Indirubin]
> 90	COc1cc(-c2coc3cc4c(c(OC)c3c2=O)OCO4)cc(OC)c1OC [Irisflorentin]
> 90	COc1ccc(/C=C/C(=O)O)cc1O [Isoferulic acid]
> 90	C[C@@]1(CO)C[C@@H](O)C[C@@]2(C)[C@@H]3CC[C@](C)([C@@H](O)CO)C=C3CC[C@H]12 [Kirenol]
> 90	C/C1=C\CC[C@]23O[C@H]2[C@@H](OC3=O)c2c(C)coc2C1 [Linderane]
> 90	COC(=O)C1=CO[C@@H](O[C@@H]2O[C@H](CO)[C@@H](O)[C@H](O)[C@H]2O)[C@@H]2[C@@H](C)[C@@H](O)C[C@H]12 [Loganin]
87.4	O=c1cc(-c2ccc(O)c(O)c2)oc2cc(O)cc(O)c12 [Luteolin]
> 90	CC1CCC(C(C)C)C(O)C1 (stereo not drawn) [Menthol]
> 90	C=C1C(=O)[C@]23[C@H](O)[C@H]1CC[C@H]2[C@@]12CO[C@]3(O)[C@@H](O)[C@@H]1C(C)(C)CC[C@@H]2O [Oridonin]
> 90	C[C@@]12C[C@@]3(O)O[C@@H](O1)[C@]1(COC(=O)c4ccccc4)[C@H]3C[C@@]12O[C@@H]1O[C@H](CO)[C@@H](O)[C@H](O)[C@H]1O [Paeoniflorin]
> 90	COc1ccc(-c2cc(=O)c3c(O)c(OC)c(O[C@@H]4O[C@H](CO[C@@H]5O[C@@H](C)[C@H](O)[C@@H](O)[C@H]5O)[C@@H](O)[C@H](O)[C@H]4O)cc3o2)cc1 [Pectolinarin]
> 90	COc1cc(O)c2c(c1)C(=O)c1cc(C)cc(O)c1C2=O [Physcion]

Same assay, conditions: recombinant enzyme

Compound	% of Control Indication Activity (Mean)
COc1ccc([C@@H]2CC(=O)c3c(O)cc(O[C@@H]4O[C@H](CO[C@@H]5O[C@@H](C)[C@H](O)[C@@H](O)[C@H]5O)[C@@H](O)[C@H](O)[C@H]4O)cc3O2)cc1O [Hesperidin]	> 90
COc1cc2ccc(=O)oc2c(OC)c1O [Isofraxidin]	> 90
CC1(C)CC[C@]2(C(=O)O)CC[C@]3(C)C(=CC[C@@H]4[C@@]5(C)CC[C@H](O[C@@H]6O[C@H](C(=O)O)[C@@H](O)[C@H](O[C@@H]7OC[C@@H](O)[C@H](O)[C@H]7O)[C@H]6O)C(C)(C)[C@@H]5CC[C@]43C)[C@@H]2C1 [Momordin Ic]	> 90
COc1cc2c(cc1OC)-c1cc3ccc(OC)c(OC)c3c[n+]1CC2.[Cl-] [Palmatine Hydrochloride]	> 90

Same assay, conditions: recombinant enzyme, pH 7.4; 1 μM active ingredient, Rh CYP1A2-mediated phenacetin O-deethylation, test dataset of 202 herb ingredients; read-out: % of Control Indication Activity (Mean)

Compound	activity [%]	activity at 1 h, 1 μM [%]
COC[C@@]12CC[C@H](OC)[C@]34C(C([C@H](OC)[C@H]13)[C@]1(OC(C)=O)[C@H]3[C@@H](OC(=O)c5ccccc5)[C@](O)(C[C@H]34)[C@@H](OC)[C@@H]1O)N(C)C2 [Hypaconitine]	> 90	–
CC(C)=CCOc1c2occc2cc2ccc(=O)oc12 [Imperatorin]	> 90	–
O=c1ccc2ccc3occc3c2o1 [Isopsoralen]	–	> 90
COc1cc(-c2oc3cc(O)cc(O)c3c(=O)c2O)ccc1O [Isorhamnetin]	> 90	–
CC1=C2C(=O)[C@H]3[C@@H](CC=C4C[C@@H](O)CC[C@@]43C)[C@@H]2CC[C@]12O[C@@H]1C[C@H](C)CN[C@H]1[C@H]2C [Jervine]	–	> 90
C=CCc1ccc(O)c(-c2cc(CC=C)ccc2O)c1 [Magnolol]	> 90	–
O=C1CCC[C@@H]2[C@H]3CCCN4CCC[C@@H](CN12)[C@@H]34 [Matrine]	> 90	–
CCCCCCCCCC(C)=O [Methyl nonylketone]	> 90	–
COc1cc2c3c(c1OC)-c1ccccc1C[C@H]3N(C)CC2 [Nuciferine]	85.5	–
CC1(C)CC[C@]2(C(=O)O)CC[C@]3(C)C(=CC[C@@H]4[C@@]5(C)CC[C@H](O)C(C)(C)[C@@H]5CC[C@]43C)[C@@H]2C1 [Oleanol ic acid]	–	> 90
O=C(/C=C/C=C/c1ccc2c(c1)OCO2)N1CCCCC1 [Piperine]	–	> 90
